Several values for one entry are separate records, joined by “and”; a condition that tells them apart may be missing. Equal entries are not always repeated.
Tests used:
[1] = tested on: Acidophilus plus Bifidus milk microorganisms; test: Growth in Acidophilus plus Bifidus milk fortified with MSM; type: cell-based; details: A/B milk
Escherichia coli = test: USP Antimicrobial Effectiveness Test (AET) of MSM supplemented TSB; type: cell-based; parameters: key: Colonies too numerous to count (TNTC); details: 48 hrs
Description: (§1) Compounds or formulated products having antimicrobial activity may be evaluated with the United States Pharmacopeia (USP) Antimicrobial Effectiveness Test (AET). The AET involves the addition of specified microorganisms (Candida albicans, Aspergillus niger, Escherichia coli, Pseudomonas aeruginosa and Staphylococcus aureus) directly to a test product at relatively high concentrations to simulate contamination. The product is held for one month, with weekly analysis of microorganism levels. […] For yeast and mold, no increase from the initial inoculums level is permitted. […] Inoculations were made using Candida albicans, Aspergillus niger, Escherichia coli, Pseudomonas aeruginosa and Staphylococcus aureus. Tryptic soy broth (TSB) was used as the culturing media. […] The inoculated media was held for one month, during which time the added microorganisms were enumerated weekly to determine if they were growing, dying off, or remaining near the initial inoculation level. […] The acceptance criteria for antimicrobial effectiveness are described in detail in the USP, herein incorporated by reference.

Pseudomonas aeruginosa = test: as above; type: cell-based; parameters: key: Colonies too numerous to count (TNTC); details: 48 hrs
Description: as §1

[2] = tested on: Lactobacillus acidophilus; test: Growth of Lactobacillus acidophilus in Acidophilus milk fortified with MSM; type: cell-based
Description: (§2) 31, 2013. […] The Acidophilus milk was low fat (Darigold).

E. coli = E. coli log growth in MSM-lactose broth with or without DMSO; type: cell-based, Escherichia coli
Experimental: Lactose broth, free of both NaCl and of proteins, was used as the media in this experiment. […] Each media composition was initially inoculated with 6.75×10^6 cfu/mL of E. coli. Cultures were incubated at 25° C. for seven days. Aliquots of each culture were taken after 24 hours of culturing and at the end of seven days in culture. Aliquots were serially diluted (with Modified Letheen diluent) and plated on trypto-soy agar plates.

Bacillus coagulans = test: Viability and colony formation of Bacillus coagulans supplemented with MSM (population count, weight, percent transmittance); type: cell-based; details: for Population Count Average / Population Weight Average: 72 hours; for Population Weight Average: washed pellet; for percent transmittance: 25×25 mm agar section, 546 nm
Experimental: At the end of the 72 hours, the broth was measured for colony formation, with photographic documentation of colony formation on tryptic soy agar. […] For the Bacillus coagulans, the organism was isolated and grown for 24 hours before harvesting. […] One milliliter of Dilution B was used to inoculate the 30 mL of TSB concentrations stated above. […] Each dilution for the microorganism was plated in triplicate for each sample. To capture the appropriate colonies per milliliter, the microorganism was plated at six different dilutions. […] The population count was based on the dilution of the tryptic soy broth after 72 hours and inoculation on to tryptic soy agar plates. The plates were incubated for 48 hours and enumerated. The tryptic soy broth after 72 hours was centrifuged down in a conical vial. The supernatant was pulled off and the pellet was washed. The centrifuging and washing was repeated three times. At the end of the third wash, the vials with pellet were weighed. Each vial was weighed empty and recorded. The corresponding vial weight was then subtracted from the ending weight of the pellet and vial, to get the weight of the Bacillus coagulans population. […] The slides were sealed to prevent the agar plug from slipping. The wavelength was set at 546 nm, and two empty slides were used as a blank. […] The weights indicated a heavier growth or a colony that was larger in size adding to the weight of the biomass. The percent transmittance was used to indicate Bacillus coagulans colony size in which a decrease in transmittance indicates an increase in colony size as the colony inhibited light from passing through the agar. […] It was observed that the percent transmittance result may be influenced by the sample size, sample location and agar variables.

[3] = tested on: Acidophilus plus Bifidus milk microorganisms; test: Growth in Acidophilus plus Bifidus milk fortified with MSM; type: cell-based; details: A/B milk; remark: listed apart in the source
Description: as §2

## CS(C)(=O)=O [MSM, Methylsulfonylmethane]
[1]; hour 0
  Log Growth of Lactobacillus acidophilus in Milk fortified with MSM: 6.41 log
[1]; hour 8
  Log Growth of Lactobacillus acidophilus in Milk fortified with MSM: 8.67 log
[1]; hour 24
  Log Growth of Lactobacillus acidophilus in Milk fortified with MSM: 9.16 log
[1]; hour 56
  Log Growth of Lactobacillus acidophilus in Milk fortified with MSM: 8.56 log
[1]; hour 96
  Log Growth of Lactobacillus acidophilus in Milk fortified with MSM: 8.61 log
[1]; hour 104
  Log Growth of Lactobacillus acidophilus in Milk fortified with MSM: 8.92 log
Escherichia coli; 1:100 dilution of MSM in TSB
  AET test results (microorganism count): TNTC
Escherichia coli; 1:1000 dilution of MSM in TSB
  AET test results (microorganism count): TNTC
Pseudomonas aeruginosa; 1:100 dilution of MSM in TSB
  AET test results (microorganism count): TNTC
Pseudomonas aeruginosa; 1:1000 dilution of MSM in TSB
  AET test results (microorganism count): TNTC
[2]; 0.5% MSM
  peak growth: 10.72 logs
[2]; 0.5% MSM, listed as order: Day 14, Day 28
  log growth lower than control: 0.74 logs and 1.00 logs
[2]; 5.0% MSM
  peak growth: 10.89 log
[2]; […] MSM
  log increase in growth within the first 8 hours (duplicates): 2.27 logs
  peak growth: 10.59 logs
[2]; […] MSM, Day 28
  log growth lower than control: 0.68 logs
  Growth of Lactobacillus acidophilus in Milk fortified with MSM average: 3.325 log
[2]; 0.50% MSM, Day 7
  Growth of Lactobacillus acidophilus in Milk fortified with MSM average: 10.68 log
[2]; 0.50% MSM, Day 14
  Growth of Lactobacillus acidophilus in Milk fortified with MSM average: 6.22 log
[2]; 0.50% MSM, Day 21
  Log Growth of Lactobacillus acidophilus in Milk fortified with MSM: 5.37 log
  Growth of Lactobacillus acidophilus in Milk fortified with MSM average: 5.37 log
[2]; 0.50% MSM, Day 28
  Growth of Lactobacillus acidophilus in Milk fortified with MSM average: 3.00 log
[2]; 0.50% MSM, hour 0
  Growth of Lactobacillus acidophilus in Milk fortified with MSM average: 6.98 log
[2]; 0.50% MSM, hour 8
  Log Growth of Lactobacillus acidophilus in Milk fortified with MSM: 9.06 log and 9.00 log
  Growth of Lactobacillus acidophilus in Milk fortified with MSM average: 9.03 log
[2]; 0.50% MSM, hour 24
  Growth of Lactobacillus acidophilus in Milk fortified with MSM average: 9.38 log
[2]; 0.50% MSM, hour 32
  Log Growth of Lactobacillus acidophilus in Milk fortified with MSM: 9.12 log
  Growth of Lactobacillus acidophilus in Milk fortified with MSM average: 9.16 log
[2]; 0.50% MSM, hour 48
  Log Growth of Lactobacillus acidophilus in Milk fortified with MSM: 8.55 log and 8.69 log
  Growth of Lactobacillus acidophilus in Milk fortified with MSM average: 8.62 log
[2]; 0.50% MSM, hour 56
  Log Growth of Lactobacillus acidophilus in Milk fortified with MSM: 8.77 log and 8.69 log
  Growth of Lactobacillus acidophilus in Milk fortified with MSM average: 8.73 log
[2]; 0.50% MSM, hour 72
  Log Growth of Lactobacillus acidophilus in Milk fortified with MSM: 8.56 log and 8.67 log
  Growth of Lactobacillus acidophilus in Milk fortified with MSM average: 8.62 log
[2]; 0.50% MSM, hour 80
  Growth of Lactobacillus acidophilus in Milk fortified with MSM average: 9.72 log
[2]; 0.50% MSM, hour 96
  Growth of Lactobacillus acidophilus in Milk fortified with MSM average: 10.09 log
[2]; 0.50% MSM, hour 104
  Growth of Lactobacillus acidophilus in Milk fortified with MSM average: 9.50 log
[2]; 5.00% MSM, Day 7
  Growth of Lactobacillus acidophilus in Milk fortified with MSM average: 10.71 log
[2]; 5.00% MSM, Day 14
  Growth of Lactobacillus acidophilus in Milk fortified with MSM average: 8.04 log
[2]; 5% MSM, Day 21
  Log Growth of Lactobacillus acidophilus in Milk fortified with MSM: 5.64 log and 5.48 log
[2]; 5.00% MSM, Day 21
  Growth of Lactobacillus acidophilus in Milk fortified with MSM average: 5.56 log
[2]; 5% MSM, Day 28
  Log Growth of Lactobacillus acidophilus in Milk fortified with MSM: 2.52 log
[2]; 5.00% MSM, Day 28
  Growth of Lactobacillus acidophilus in Milk fortified with MSM average: 2.52 log
[2]; 5% MSM, hour 0
  Log Growth of Lactobacillus acidophilus in Milk fortified with MSM: 6.56 log and 6.47 log
[2]; 5.00% MSM, hour 0
  Growth of Lactobacillus acidophilus in Milk fortified with MSM average: 6.52 log
[2]; 5.00% MSM, hour 8
  Growth of Lactobacillus acidophilus in Milk fortified with MSM average: 8.91 log
[2]; 5.00% MSM, hour 24
  Growth of Lactobacillus acidophilus in Milk fortified with MSM average: 9.29 log
[2]; 5.00% MSM, hour 32
  Growth of Lactobacillus acidophilus in Milk fortified with MSM average: 9.26 log
[2]; 5% MSM, hour 48
  Log Growth of Lactobacillus acidophilus in Milk fortified with MSM: 8.78 log and 8.72 log
[2]; 5.00% MSM, hour 48
  Growth of Lactobacillus acidophilus in Milk fortified with MSM average: 8.75 log
[2]; 5% MSM, hour 56
  Log Growth of Lactobacillus acidophilus in Milk fortified with MSM: 8.88 log and 8.7 log
[2]; 5.00% MSM, hour 56
  Growth of Lactobacillus acidophilus in Milk fortified with MSM average: 8.79 log
[2]; 5% MSM, hour 72
  Log Growth of Lactobacillus acidophilus in Milk fortified with MSM: 8.75 log and 8.63 log
[2]; 5.00% MSM, hour 72
  Growth of Lactobacillus acidophilus in Milk fortified with MSM average: 8.69 log
[2]; 5.00% MSM, hour 80
  Growth of Lactobacillus acidophilus in Milk fortified with MSM average: 9.79 log
[2]; 5.00% MSM, hour 96
  Growth of Lactobacillus acidophilus in Milk fortified with MSM average: 10.20 log
[2]; 5.00% MSM, hour 104
  Growth of Lactobacillus acidophilus in Milk fortified with MSM average: 9.56 log
[2]; […] MSM, Day 7
  Growth of Lactobacillus acidophilus in Milk fortified with MSM average: 10.50 log
[2]; […] MSM, Day 14
  Growth of Lactobacillus acidophilus in Milk fortified with MSM average: 7.33 log
[2]; […] MSM, Day 21
  Growth of Lactobacillus acidophilus in Milk fortified with MSM average: 5.465 log
[2]; […] MSM, hour 0
  Growth of Lactobacillus acidophilus in Milk fortified with MSM average: 6.69 log
[2]; […] MSM, hour 8
  Growth of Lactobacillus acidophilus in Milk fortified with MSM average: 9.02 log
[2]; […] MSM, hour 24
  Log Growth of Lactobacillus acidophilus in Milk fortified with MSM: 9.01 log
  Growth of Lactobacillus acidophilus in Milk fortified with MSM average: 9.13 log
[2]; […] MSM, hour 32
  Growth of Lactobacillus acidophilus in Milk fortified with MSM average: 9.09 log
[2]; […] MSM, hour 48
  Growth of Lactobacillus acidophilus in Milk fortified with MSM average: 8.85 log
[2]; […] MSM, hour 56
  Growth of Lactobacillus acidophilus in Milk fortified with MSM average: 8.76 log
[2]; […] MSM, hour 72
  Growth of Lactobacillus acidophilus in Milk fortified with MSM average: 8.66 log
[2]; […] MSM, hour 80
  Growth of Lactobacillus acidophilus in Milk fortified with MSM average: 9.74 log
[2]; […] MSM, hour 96
  Growth of Lactobacillus acidophilus in Milk fortified with MSM average: 10.25 log
[2]; […] MSM, hour 104
  Growth of Lactobacillus acidophilus in Milk fortified with MSM average: 9.63 log
[2]; milk fortified with MSM (all concentrations), minimum
  log increase in growth, hour 0 to hour 8: ≥ 1.73 log
[2]; milk fortified with MSM (concentrations not given)
  increase over Acidophilus milk growth at Day 14: 0.86 logs and 1.3 logs
E. coli; 11% MSM, 24 hours (maximum)
  reduction of bacterial growth: about 2.2 logs
E. coli; 16% MSM, 24 hours
  reduction of bacterial growth: about 1 log
Bacillus coagulans; 1.0% MSM in TSB
  Population Count Average: 1.01 × 10^11
  Population Weight Average: 0.1363
Bacillus coagulans; 1.0% MSM
  percent transmittance: 51.5%
Bacillus coagulans; 5.0% MSM in TSB
  Population Count Average: 2.8 × 10^11
  Population Weight Average: 0.1260
Bacillus coagulans; 5.0% MSM
  percent transmittance: 45.6%
Bacillus coagulans; […] MSM in TSB
  Population Count Average: 3.3 × 10^11
  Population Weight Average: 0.9828
Bacillus coagulans; […] MSM
  percent transmittance: 49.8%
[3]; Day 7
  Log Growth of Lactobacillus acidophilus in Milk fortified with MSM: 10.42 log
[3]; Day 21
  Log Growth of Lactobacillus acidophilus in Milk fortified with MSM: 5.37 log
[3]; Day 28
  Log Growth of Lactobacillus acidophilus in Milk fortified with MSM: 3.94 log
[3]; hour 32
  Log Growth of Lactobacillus acidophilus in Milk fortified with MSM: 8.87 log
[3]; hour 48
  Log Growth of Lactobacillus acidophilus in Milk fortified with MSM: 8.3 log
[3]; hour 72
  Log Growth of Lactobacillus acidophilus in Milk fortified with MSM: 8.45 log
[3]; hour 80
  Log Growth of Lactobacillus acidophilus in Milk fortified with MSM: 9.82 log

Source: patent publication US9487749B2 (priority 2009, dated 2016)
